Results as given in patent US20250255793A1, “ANTI-AGING CATALYST COMPOSITION COMPRISING A BLEND OF COSMETIC ACIDS” (LOREAL, priority 2024, published 2025).

What was measured:
keratinocytes = assay: Taurine induced NAD+ stimulation in cultured keratinocytes; type: cell-based; details: for NAD+ level: keratinocytes
Procedure: Cell studies were conducted in which the effects of taurine and niacinamide on the NAD+ production were assessed when keratinocytes were cultured with these raw materials. In all of the tested conditions supplemented with actives, the NAD+ of the cells were increased compared to the untreated control.
Taurine has been identified as an active of interest for skin care due to its potential benefits to boost cell energy. This report explores the effect of supplementing taurine with keratinocytes to understand its effect on increasing NAD+ level in the cells. […] In our in vitro study, we observed that vitamin C, vitamin E and ferulic acid imparts significant benefits to the cell cycle and cell division. When combined with anti-aging catalyst composition, the treatment not only enhances skin renewal and resurfacing benefits but also maintains the positive effects on cell cycle and cell division. This is evident in the more pronounced impact on pathways related to skin cornification and epidermis development compared to single type treatment.

[1] = tested on: UVB-induced wrinkle formation; details: oral taurine supplementation; cited from earlier work
[2] = tested on: diabetic precataractous lens; details: dietary taurine supplementation; cited from earlier work

## NC(=O)c1cccnc1 [niacinamide, reference compound]
keratinocytes; 0.2% niacinamide
  NAD+ level: higher level of NAD+ compared to 0.05% niacinamide

## NCCS(=O)(=O)O [taurine]
keratinocytes; 0.05% taurine
  NAD+ level: comparable NAD+ level as compared to 0.2% niacinamide
keratinocytes; keratinocytes cultured with raw material
  NAD+ of the cells compared to the untreated control: stimulatory effect in increasing the NAD+ level
[1]
  UVB-induced wrinkle formation: suppress
[2]
  MDA levels, GSSG/GSH, and NAD+/NADH: ameliorates
